Reference: patent US9896421B2, “Compound having skin-whitening, anti-oxidizing and PPAR activities and medical use thereof” (Pusan National University Industry-University Cooperation …, priority 2011, dated 2018)

Row | melting point | Structure (SMILES)
1 | 254.2 to 255.6 °C | [H]/N=C1/NC(=O)C(=Cc2ccc(O)c(OCC)c2)N1C [Compound 77, (Z)-5-(3-ethoxy-4-hydroxybenzylidene)-2-imino-1-methylimidazolidin-4-one]
2 | 253.3 to 254.8 °C | COc1cc(/C=C2\SC(=N)NC2=O)cc(OC)c1OC [Compound 121, (Z)-2-Imino-5-(3,4,5-trimethoxybenzylidene)thiazolidin-4-one]
3 | 257.1 to 259 °C | [H]/N=C1/NC(=O)C(=Cc2ccc(OC)c(OC)c2)N1C [Compound 80, (Z)-5-(3,4-dimethoxybenzylidene)-2-imino-1-methylimidazolidin-4-one]
4 | 234.1 to 237.2 °C | COc1ccc(/C=C2\NC(=O)NC2=O)c(OC)c1 [Compound 32, (Z)-5-(2,4-dimethoxybenzylidene)imidazolidine-2,4-dione]
5 | 244.7 to 246.1 °C | CCOc1cc(C=C2C(=O)NC(=O)NC2=O)ccc1O
6 | 236.2 to 238 °C | COc1ccc(/C=C2\NC(=S)NC2=O)cc1OC [Compound 105, (Z)-5-(3,4-dimethoxybenzylidene)-2-thioxoimidazolidin-4-one]
7 | 269.9 to 271.7 °C | COc1ccc(C=C2C(=O)NC(=S)NC2=O)cc1OC
8 | 236.7 to 237.7 °C | COc1cc(/C=C2\CC(=O)NC2=O)cc(OC)c1O [Compound 48, (E)-3-(4-hydroxy-3,5-dimethoxybenzylidene)pyrrolidine-2,5-dione]
9 | 191.2 to 193.6 °C | COc1cc(/C=C2\CC(=O)NC2=O)cc(OC)c1OC [Compound 47, (E)-3-(3,4,5-trimethoxybenzylidene)pyrrolidine-2,5-dione]
10 | 245.7 to 246.6 °C | COc1ccc(/C=C2\CC(=O)NC2=O)c(OC)c1 [Compound 45, (E)-3-(2,4-dimethoxybenzylidene)pyrrolidine-2,5-dione]
11 | 260.9 to 263.6 °C | COc1cc(C=C2C(=O)NC(=S)NC2=O)ccc1O
12 | 249.1 to 250.7 °C | [H]/N=C1/NC(=O)C(=Cc2ccc(OC)cc2OC)S1 [Compound 119, (Z)-5-(2,4-dimethoxybenzylidene)-2-iminothiazolidin-4-one]
13 | 271.3 to 272.1 °C | O=C1C/C(=C\c2ccccc2O)C(=O)N1 [Compound 46, (E)-3-(2-hydroxybenzylidene)pyrrolidine-2,5-dione]
14 | 278.9 to 280.5 °C | COc1ccc(C=C2C(=O)NC(=S)NC2=O)cc1O
15 | > 300 °C | COc1ccc(C=C2C(=O)NC(=O)NC2=O)cc1OC
16 | 252.1 to 255 °C | COc1ccc(/C=C2/C(=O)NC(=N)N2C)cc1 [Compound 79, (Z)-2-Imino-5-(4-methoxybenzylidene)-1-methylimidazolidin-4-one]
17 | 210.1 to 211.5 °C | [H]/N=C1/NC(=O)C(=Cc2ccccc2O)S1 [Compound 120, (Z)-5-(2-hydroxybenzylidene)-2-iminothiazolidin-4-one]
18 | > 300 °C | [H]/N=C1/NC(=O)C(=Cc2ccc(O)c(O)c2)S1 [Compound 112, (Z)-5-(3,4-dihydroxybenzylidene)-2-iminothiazolidin-4-one]
19 | 237.1 to 238.6 °C | COc1ccc(/C=C2\NC(=S)NC2=O)c(OC)c1 [Compound 107, (Z)-5-(2,4-dimethoxybenzylidene)-2-thioxoimidazolidin-4-one]
20 | 258.9 to 260.7 °C | COc1cc(C=C2C(=O)NC(=S)NC2=O)cc(OC)c1OC
21 | 250.6 to 251.4 °C | O=C1NC(=S)NC(=O)C1=Cc1ccccc1O

Row | melting point | Structure (SMILES)
22 | 265.5 to 268.4 °C | O=C1NC(=O)/C(=C/c2ccccc2O)N1 [Compound 33, (Z)-5-(2-hydroxybenzylidene)imidazolidine-2,4-dione]
23 | 243.4 to 245.7 °C | COc1ccc(/C=C2\CC(=O)NC2=O)cc1 [Compound 42, (E)-3-(4-methoxybenzylidene)pyrrolidine-2,5-dione]
24 | 222.3 to 224.1 °C | CCOc1cc(/C=C2\CC(=O)NC2=O)ccc1O [Compound 40, (E)-3-(3-ethoxy-4-hydroxybenzylidene)pyrrolidine-2,5-dione]
25 | 274.8 to 275.4 °C | COc1cc(C=C2C(=O)NC(=O)NC2=O)cc(OC)c1OC
26 | 266 to 268.5 °C | COc1cc(/C=C2\NC(=O)NC2=O)cc(OC)c1O [Compound 151, (Z)-5-(4-hydroxy-3,5-dimethoxybenzylidene)imidazolidine-2,4-dione]
27 | 237.1 to 238.4 °C | COc1ccc(/C=C2\CC(=O)NC2=O)cc1OC [Compound 43, (E)-3-(3,4-dimethoxybenzylidene)pyrrolidine-2,5-dione]
28 | 254.7 to 255.6 °C | COc1ccc(/C=C2\SC(=O)NC2=O)c(OC)c1 [Compound 10, (Z)-5-(2,4-dimethoxybenzylidene)thiazolidine-2,4-dione]
29 | 266.3 to 267.2 °C | COc1cc(/C=C2\NC(=O)NC2=O)cc(OC)c1OC [Compound 34, (Z)-5-(3,4,5-trimethoxybenzylidene)imidazolidine-2,4-dione]
30 | 285 to 287.3 °C | CCOc1cc(C=C2C(=O)NC(=S)NC2=O)ccc1O
31 | 291.1 to 291.7 °C | COc1ccc(C=C2C(=O)NC(=O)NC2=O)c(OC)c1
32 | 244.6 to 245.6 °C | [H]/N=C1/NC(=O)C(=Cc2ccc(OC)cc2OC)N1C [Compound 81, (Z)-5-(2,4-dimethoxybenzylidene)-2-imino-1-methylimidazolidin-4-one]
33 | 264 to 266.6 °C | COc1cc(/C=C2\NC(=S)NC2=O)cc(OC)c1OC [Compound 109, (Z)-2-thioxo-5-(3,4,5-trimethoxybenzylidene)imidazolidin-4-one]
34 | 253 to 255.4 °C | CCOc1cc(/C=C2\NC(=O)NC2=O)ccc1O [Compound 28, (Z)-5-(3-ethoxy-4-hydroxybenzylidene)imidazolidine-2,4-dione]
35 | 275.2 to 277.8 °C | O=C1C/C(=C\c2cc(O)cc(O)c2)C(=O)N1 [Compound 44, (E)-3-(3,5-dihydroxybenzylidene)pyrrolidine-2,5-dione]
36 | 285.9 to 288 °C | [H]/N=C1/NC(=O)C(=Cc2ccc(O)cc2)N1C [Compound 74, (Z)-5-(4-hydroxybenzylidene)-2-imino-1-methylimidazolidin-4-one]
37 | > 300 °C | COc1cc(C=C2C(=O)NC(=S)NC2=O)cc(OC)c1O
38 | > 300 °C | O=C1NC(=O)/C(=C/c2ccc(O)cc2)N1 [Compound 25, (Z)-5-(4-hydroxybenzylidene)imidazolidine-2,4-dione]
39 | 276.1 to 277.3 °C | [H]/N=C1/NC(=O)C(=Cc2ccc(OC)c(O)c2)N1C [Compound 78, (Z)-5-(3-hydroxy-4-methoxybenzylidene)-2-imino-1-methylimidazolidin-4-one]
40 | 243.5 to 245.7 °C | COc1cc(/C=C2\CC(=O)NC2=O)ccc1O [Compound 39, (E)-3-(4-hydroxy-3-methoxybenzylidene)pyrrolidine-2,5-dione]
41 | 179.1 to 181 °C | COc1cc(/C=C2\SC(=O)NC2=O)cc(OC)c1OC [Compound 12, (Z)-5-(3,4,5-trimethoxybenzylidene)thiazolidine-2,4-dione]

Row | Structure (SMILES) | melting point
42 | O=C1NC(=O)/C(=C/c2cc(O)cc(O)c2)S1 [Compound 9, (Z)-5-(3,5-dihydroxybenzylidene)thiazolidine-2,4-dione] | 288.4 to 290.2 °C
